Test results reported in publication PMC8068288, “Novel Thiol Containing Hybrid Antioxidant-Nitric Oxide Donor Small Molecules for Treatment of Glaucoma” (Antioxidants, 2021).

Columns and labels:
[1] = Hypochlorous acid (HOCl) radical scavenging assay (TNB) in buffer; assay type: biochemical
Method: This assay used the redox reaction between 5-thio-2-nitrobenzoic acid (TNB) and HOCl to form dithio-TNB. Using the method described previously, we assessed the % TNB remaining with or without treatment with SA compounds. Compounds SA-2, SA-9, and SA-10 were used in concentrations ranging from 0.1 µM, 1 µM, 10 µM, 100 µM, and 1000 µM. Lipoic acid (1 mM) was used as positive control.

NTM-5 cells [2] = assay: Total nitrite release by Griess assay in NTM-5 cell supernatant; assay type: cell-based, human
Method: The total nitrite released from the compounds in buffer and in cell supernatant were measured by Griess assay as reported by us previously. In brief, compounds (SA-2, SA-9, and SA-10) in buffer at different concentrations (1 mM, 500 µM, 250 µM 125 µM, 62.5 µM, 31.25 µM, and 15.625 µM) or supernatant collected from Human transformed trabecular meshwork (NTM-5) cells were added to a 96-well plate. 1% Sulphanilamide in 5% phosphoric acid and 0.1% N-1-napthylethylenediamine dihydrochloride (NED) were added to experimental samples sequentially at room temperature and away from light. SIN-1 was used as reference standard. UV Absorbances (Cytation 5) were measured at specific timepoints (0, 5 min, 10 min, 15 min, 30 min, 24 h, and 28 h) at 520 nm.
(§1) The experiments were repeated twice with four technical replicates.

NTM-5 cells [3] = assay: In vitro peroxynitrite measurement assay; assay type: cell-based, human; details: 0.1 µM and 1 mM, with or without TBHP 350 µM
Method: Human transformed trabecular meshwork (NTM-5) cells (20,000 cells/well/90 µL) were seeded in 96-well plates (Griener bio-one black plate) and stained with 10 µL of 10X Peroxynitrite Sensor Green solution for 1 h. […] SIN-1 was used as a positive control. Detection of peroxynitrite was done using Peroxynitrite Assay Kit (abcam-ab233468-cell based). Fluorescence signals were measured using a microplate reader (Cytation5) at Ex/Em = 485/530 nm at time intervals (15 min, 30 min, 1 h, 2 h, and 3 h). The experiments were done in duplicates.

NTM-5 cells [4] = assay: In vitro cytoprotection assay against TBHP (MTT); assay type: cell-based; details: Homo sapiens, TBHP 350 µM, read-out: EC50 of increase in cell viability (cytoprotection)
Method: After 24 h of treatment, cell proliferation was measured using MTT assay. All the experiments are done in duplicate with four experimental replicates.

NTM-5 cells [5] = assay: Superoxide scavenging ratio in NTM-5 cell supernatant (pyrogallol assay), with or without TBHP; assay type: cell-based, human; details: for AUC0-3h of superoxide scavenging ratio: NTM-5 cell supernatant, 18 h treatment, 0.1-1000 µM
Method: The ROS scavenging ratio was determined using a chemical assay where WST-1 was used as superoxide scavenger produced by pyrogallol following a reported protocol. Briefly, the superoxide anion radical scavenging activity was determined spectrophotometrically by measuring the formation of WST-1 formazan at 450 nm. WST-1 (40 µL, 50 µM) was added to the compounds (or corresponding solution) in a final volume of 160 µL in 50 mM ammonium hydrogen carbonate buffer, 0.5 mM EDTA, pH 9.3. Reaction was launched by adding 40 µL 1 mM pyrogallol. The operation was based on the 96-well microplate, and measurement was performed at different time points under 37 °C by Cytation5 Microplate Reader. Baicalein (1 mM) was used as positive control. Compounds SA-2, SA-9, and SA-10 were used in concentrations ranging from 1 µM, 10 µM, 100 µM, and 1000 µM. The superoxide anion radical scavenging ratio % was calculated according to the following formula:Scavenging ratio (%) = A0 − (A1 − A2)/A0 × 100% […]
as §1
Figure 2 Superoxide scavenging ability of SA compounds in buffer and cells. (a) The % of superoxide scavenging response from 1 mM concentration of SA-2, SA-9, and SA-10 in pyrogallol (Pyr, 1 mM) induced superoxide induction assay at different time points in buffer. The AUC0–2.5 h for SA-2, SA-9, and SA-10 were 1592 ± 37.87, 1355 ± 42.62, and 2350 ± 69.26, respectively. (b) Comparison of the % ROS scavenging activity of SA-2, SA-9, and SA-10 with control after 15 min of treatment of pyrogallol. (c) The superoxide scavenging ratio (%) after 18 h treatment of 10 µM concentration of SA-2, SA-9, and SA-10 to NTM-5 cell supernatant using pyrogallol induced superoxide induction assay at different time points. (d) The superoxide scavenging ratio (%) of 10 µM concentration of SA-2, SA-9, and SA-10 in NTM-5 cell supernatant. The cells were previously treated with 5.5 mM of TBHP for 30 min followed by SA compounds and incubated for 18 h. Control is untreated cells. Three technical replicates were used for each experiment and all experiments were repeated 2 times. * p < 0.05, ** p < 0.005, *** p < 0.001, **** p < 0.0001, One-way ANOVA for (b), and two-way ANOVA for (c,d).
Figure S1: Superoxide scavenging ability of SA compounds in buffer and cells. a) The % of superoxide scavenging response from different concentrations of SA-2, SA-9 and SA-10 in pyrogallol (1 µM, 10 µM, 100 µM and 1,000 µM) induced superoxide induction assay at 15 minutes time point in buffer solution. The […]
superoxide scavenging ratio (%) after 18h treatment of different concentrations (0.1 µM, 1 µM, 10 µM, 100 µM and 1,000 µM) of SA-2, SA-9 and SA-10 to NTM-5 cell supernatant with or without TBHP (5.5 mM) using pyrogallol induced superoxide induction assay at 3h time point. Control is untreated cells. The cells were previously treated with 5.5 mM of TBHP for 30 minutes followed by SA compounds and TBHP and incubated for 18h. Control is untreated cells. e) The AUC0-3h for SA-2, SA-9 and SA-10 were 18902 ± 2714, […]
for each experiment and all experiments were repeated 2 times. N = 3.
(1 picture or pasted object on this page, not shown here)

## Cl.[NH-]c1c[n+](C2CCSCC2)no1 [SA-9, (3-(tetrahydro-2H-thiopyran-4-yl)-1,2,3-oxadiazol-3-ium-5-yl)amide hydrochloride]
[1]; 0.1 µM vs. 1 mM lipoic acid, 30 min
  fold more potent than lipoic acid in HOCl scavenging: 10,000 fold
[1]; 0.1 µM–1000 µM in buffer
  duration of HOCl scavenging effect: > 1 h
NTM-5 cells [2]; 28 h at 37 °C
  NO released in NTM-5 cell supernatants: dose dependently
NTM-5 cells [2]; buffer solution and TM cells
  start of NO release: > 24 h
NTM-5 cells [3]
  ONOO− radical formation: significantly less amount of radicals
NTM-5 cells [4]
  EC50: 1000 nM
NTM-5 cells [5]; 10 µM for 18 h, NTM-5 cells insulted with TBHP, TBHP alone 2.5%
  superoxide scavenging ability (ratio): 20–25%
NTM-5 cells [5]; 10 µM for 18 h, TBHP-treated NTM-5 cells
  fold prevention of the decrease in superoxide scavenging ability vs TBHP alone: ~ 10 fold
NTM-5 cells [5]; with TBHP 5.5 mM
  AUC0-3h of superoxide scavenging ratio: 14120 ± 2023
NTM-5 cells [5]; without TBHP
  AUC0-3h of superoxide scavenging ratio: 21155 ± 1099
